# Results published in PubChem BioAssay AID1918931 (Molecular Pharmacology Branch, DTP, NCI, 2023).
# pIC50: −log10 of the molar value.
# Tested on: 138582-337-R-J1-PDC complex spheroid viability
# Test: Anticancer human tumor 138582-337-R-J1-PDC patient-derived Merkel cell tumor cell line growth inhibition
# Conditions: for pIC50: curve of first compound; for viability, T/C: stronger effect = lower value
# In short: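 Complex spheroids of tumor cells with HUVEC and human MSCs, exposed to iadademstat combined with other agents. Each agent tested in half-log steps from near clinical Cmax (else 10 microM top), DMSO ≤0.25%.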
# [1] = second compound 0.1 µM, first compound 0.0316 µM
# [2] = second compound 0.1 µM, first compound 0.1 µM
# [3] = second compound 0.1 µM, first compound 0.316 µM
# [4] = second compound 0.1 µM, first compound 1 µM
# [5] = second compound 0.1 µM, first compound 3.16 µM
# [6] = second compound 0.1 µM, first compound 10 µM
# [7] = second compound 0.316 µM, first compound 0.0316 µM
# [8] = second compound 0.316 µM, first compound 0.1 µM
# [9] = second compound 0.316 µM, first compound 0.316 µM
# [10] = second compound 0.316 µM, first compound 1 µM
# [11] = second compound 0.316 µM, first compound 3.16 µM
# [12] = second compound 0.316 µM, first compound 10 µM
# [13] = second compound 1 µM, first compound 0.0316 µM
# [14] = second compound 1 µM, first compound 0.1 µM
# [15] = second compound 1 µM, first compound 0.316 µM
# [16] = second compound 1 µM, first compound 1 µM
# [17] = second compound 1 µM, first compound 3.16 µM
# [18] = second compound 1 µM, first compound 10 µM
# [19] = second compound 3.16 µM, first compound 0.0316 µM
# [20] = second compound 3.16 µM, first compound 0.1 µM
# [21] = second compound 3.16 µM, first compound 0.316 µM
# [22] = second compound 3.16 µM, first compound 1 µM
# [23] = second compound 3.16 µM, first compound 3.16 µM
# [24] = second compound 3.16 µM, first compound 10 µM
# [25] = second compound 10 µM, first compound 0.0316 µM
# [26] = second compound 10 µM, first compound 0.1 µM
# [27] = second compound 10 µM, first compound 0.316 µM
# [28] = second compound 10 µM, first compound 1 µM
# [29] = second compound 10 µM, first compound 3.16 µM
# [30] = second compound 10 µM, first compound 10 µM
# [31] = second compound 0.1 µM, first compound 0.00949 µM
# [32] = second compound 0.1 µM, first compound 0.03 µM
# [33] = second compound 0.1 µM, first compound 0.0949 µM
# [34] = second compound 0.1 µM, first compound 0.3 µM
# [35] = second compound 0.316 µM, first compound 0.00949 µM
# [36] = second compound 0.316 µM, first compound 0.03 µM
# [37] = second compound 0.316 µM, first compound 0.0949 µM
# [38] = second compound 0.316 µM, first compound 0.3 µM
# [39] = second compound 1 µM, first compound 0.00949 µM
# [40] = second compound 1 µM, first compound 0.03 µM
# [41] = second compound 1 µM, first compound 0.0949 µM
# [42] = second compound 1 µM, first compound 0.3 µM
# [43] = second compound 3.16 µM, first compound 0.00949 µM
# [44] = second compound 3.16 µM, first compound 0.03 µM
# [45] = second compound 3.16 µM, first compound 0.0949 µM
# [46] = second compound 3.16 µM, first compound 0.3 µM
# [47] = second compound 10 µM, first compound 0.00949 µM
# [48] = second compound 10 µM, first compound 0.03 µM
# [49] = second compound 10 µM, first compound 0.0949 µM
# [50] = second compound 10 µM, first compound 0.3 µM
# 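Throughout, for viability, T/C: 100% = DMSO vehicle control viability.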
compound,measurement,setting,value
CC1(C)CCC(CN2CCN(c3ccc(C(=O)NS(=O)(=O)c4ccc(NCC5CCOCC5)c([N+](=O)[O-])c4)c(Oc4cnc5[nH]ccc5c4)c3)CC2)=C(c2ccc(Cl)cc2)C1 + NC1CC1c1ccc(-c2cccc(O)c2)cc1,pIC50,second compound 0.1 µM,5.40
same,pIC50,second compound 0.316 µM,5.42
same,pIC50,second compound 1 µM,5.39
same,pIC50,second compound 3.16 µM,5.49
same,pIC50,second compound 10 µM,5.45
same,"viability, T/C",[1],63.8%
same,"viability, T/C",[2],55.9%
same,"viability, T/C",[3],56.7%
same,"viability, T/C",[4],66.3%
same,"viability, T/C",[5],66.6%
same,"viability, T/C",[6],2.31%
same,"viability, T/C",[7],70.8%
same,"viability, T/C",[8],63%
same,"viability, T/C",[9],59.4%
same,"viability, T/C",[10],67.9%
same,"viability, T/C",[11],58.1%
same,"viability, T/C",[12],2.2%
same,"viability, T/C",[13],69.7%
same,"viability, T/C",[14],64.2%
same,"viability, T/C",[15],78%
same,"viability, T/C",[16],64%
same,"viability, T/C",[17],63.5%
same,"viability, T/C",[18],1.33%
same,"viability, T/C",[19],62.9%
same,"viability, T/C",[20],68.5%
same,"viability, T/C",[21],57.9%
same,"viability, T/C",[22],65.3%
same,"viability, T/C",[23],51.6%
same,"viability, T/C",[24],2.03%
same,"viability, T/C",[25],62.3%
same,"viability, T/C",[26],69.8%
same,"viability, T/C",[27],72.9%
same,"viability, T/C",[28],70.4%
same,"viability, T/C",[29],55.6%
same,"viability, T/C",[30],1.17%
CC1COCCN1c1cc(C2(S(C)(=N)=O)CC2)nc(-c2ccnc3[nH]ccc23)n1 (stereo not given) + NC1CC1c1ccc(-c2cccc(O)c2)cc1,pIC50,second compound 0.1 µM,5.34
same,pIC50,second compound 0.316 µM,5.52
same,pIC50,second compound 1 µM,5.30
same,pIC50,second compound 3.16 µM,5.41
same,pIC50,second compound 10 µM,5.37
same,"viability, T/C",[1],74.1%
same,"viability, T/C",[2],78%
same,"viability, T/C",[3],70.3%
same,"viability, T/C",[4],68.6%
same,"viability, T/C",[5],54.2%
same,"viability, T/C",[6],37.6%
same,"viability, T/C",[7],64.6%
same,"viability, T/C",[8],79%
same,"viability, T/C",[9],75.8%
same,"viability, T/C",[10],68%
same,"viability, T/C",[11],49.4%
same,"viability, T/C",[12],35.9%
same,"viability, T/C",[13],72%
same,"viability, T/C",[14],66.1%
same,"viability, T/C",[15],62.6%
same,"viability, T/C",[16],69.4%
same,"viability, T/C",[17],54%
same,"viability, T/C",[18],40.8%
same,"viability, T/C",[19],81.2%
same,"viability, T/C",[20],76.3%
same,"viability, T/C",[21],78.8%
same,"viability, T/C",[22],66.2%
same,"viability, T/C",[23],54%
same,"viability, T/C",[24],32.6%
same,"viability, T/C",[25],89.9%
same,"viability, T/C",[26],87.6%
same,"viability, T/C",[27],95.5%
same,"viability, T/C",[28],80.8%
same,"viability, T/C",[29],53.3%
same,"viability, T/C",[30],41.6%
CCN(c1cc(-c2ccc(CN3CCOCC3)cc2)cc(C(=O)NCc2c(C)cc(C)[nH]c2=O)c1C)C1CCOCC1 + NC1CC1c1ccc(-c2cccc(O)c2)cc1,pIC50,second compound 0.1 µM,< 5.52
same,pIC50,second compound 0.316 µM,< 5.52
same,pIC50,second compound 1 µM,< 5.52
same,pIC50,second compound 3.16 µM,< 5.52
same,pIC50,second compound 10 µM,< 5.52
same,"viability, T/C",[31],76.8%
same,"viability, T/C",[32],69.5%
same,"viability, T/C",[33],53.6%
same,"viability, T/C",[34],59.3%
same,"viability, T/C","second compound 0.1 µM, first compound 0.949 µM",66.9%
same,"viability, T/C","second compound 0.1 µM, first compound 3 µM",64.6%
same,"viability, T/C",[35],80.8%
same,"viability, T/C",[36],81%
same,"viability, T/C",[37],77.9%
same,"viability, T/C",[38],66.6%
same,"viability, T/C","second compound 0.316 µM, first compound 0.949 µM",59%
same,"viability, T/C","second compound 0.316 µM, first compound 3 µM",67.1%
same,"viability, T/C",[39],78.3%
same,"viability, T/C",[40],72.7%
same,"viability, T/C",[41],77.1%
same,"viability, T/C",[42],66.8%
same,"viability, T/C","second compound 1 µM, first compound 0.949 µM",64.7%
same,"viability, T/C","second compound 1 µM, first compound 3 µM",60.5%
same,"viability, T/C",[43],75.8%
same,"viability, T/C",[44],84.9%
same,"viability, T/C",[45],82%
same,"viability, T/C",[46],75.2%
same,"viability, T/C","second compound 3.16 µM, first compound 0.949 µM",59.4%
same,"viability, T/C","second compound 3.16 µM, first compound 3 µM",66.9%
same,"viability, T/C",[47],63.7%
same,"viability, T/C",[48],91.8%
same,"viability, T/C",[49],74%
same,"viability, T/C",[50],80.3%
same,"viability, T/C","second compound 10 µM, first compound 0.949 µM",61.4%
same,"viability, T/C","second compound 10 µM, first compound 3 µM",72.4%
Nc1ncn(C2CC(O)C(CO)S2)c(=O)n1 (stereo not given) + NC1CC1c1ccc(-c2cccc(O)c2)cc1,pIC50,second compound 0.1 µM,< 6.52
same,pIC50,second compound 0.316 µM,< 6.52
same,pIC50,second compound 1 µM,< 6.52
same,pIC50,second compound 3.16 µM,< 6.52
same,pIC50,second compound 10 µM,< 6.52
same,"viability, T/C","second compound 0.1 µM, first compound 0.000949 µM",79.6%
same,"viability, T/C","second compound 0.1 µM, first compound 0.003 µM",83.8%
same,"viability, T/C",[31],69.2%
same,"viability, T/C",[32],73%
same,"viability, T/C",[33],77.1%
same,"viability, T/C",[34],69.3%
same,"viability, T/C","second compound 0.316 µM, first compound 0.000949 µM",68.5%
same,"viability, T/C","second compound 0.316 µM, first compound 0.003 µM",80.1%
same,"viability, T/C",[35],77.9%
same,"viability, T/C",[36],76.6%
same,"viability, T/C",[37],79.1%
same,"viability, T/C",[38],78.3%
same,"viability, T/C","second compound 1 µM, first compound 0.000949 µM",71.8%
same,"viability, T/C","second compound 1 µM, first compound 0.003 µM",70.8%
same,"viability, T/C",[39],70.8%
same,"viability, T/C",[40],68%
same,"viability, T/C",[41],76.6%
same,"viability, T/C",[42],87.5%
same,"viability, T/C","second compound 3.16 µM, first compound 0.000949 µM",84.5%
same,"viability, T/C","second compound 3.16 µM, first compound 0.003 µM",78.9%
same,"viability, T/C",[43],84.9%
same,"viability, T/C",[44],71.8%
same,"viability, T/C",[45],77.8%
same,"viability, T/C",[46],68.9%
same,"viability, T/C","second compound 10 µM, first compound 0.000949 µM",74.3%
same,"viability, T/C","second compound 10 µM, first compound 0.003 µM",82%
same,"viability, T/C",[47],88.5%
same,"viability, T/C",[48],89.7%
same,"viability, T/C",[49],93.4%
same,"viability, T/C",[50],89.9%
